We go through nine molecules from article PMC10935098 (Molecules, 2024).

In data set [1] the test system is Candida tropicalis (BNCC340288). The note with it: BNCC340288, 24 h.
The test system of data set [2] is Candida parapsilosis (BNCC336015). The note with it: BNCC336015, 24 h.
Data set [3] has as its system Bacillus subtilis (BNCC109047). The note with it: BNCC109047, 24 h.
For data set [4], the system named is Escherichia coli (BNCC336902). The note with it: BNCC336902, 24 h.
For another data set, the system named is trypsin. As to conditions: pH 6.8.
Data set [5] has as its system erythrocytes of C57BL/6 mice. The note with it: 128 µM.
The next data set in a line: in vitro. The note with it: serum.
The subject of data set [6] is Candida tropicalis. Type of data set: cell-based.
The subject of data set [7] is Candida tropicalis. Type of data set: cell-based. This is another data set of the same source.
In data set [8] the test system is human hepatocytes (THLE-3).
For a further data set, the system named is C57BL/6 mice. As to conditions: mouse, ip, 10 mg/kg.
The test system of another data set is Bacillus subtilis. Format: cell-based.

In brackets after ≈: the same amount, converted by molar mass. Where a SMILES comes first, the peptide text is derived from it. Bridges are numbered along the chain shown (N, C = ends). [ ]: non-standard residue; d: D form.

For the molecule `CC(C)C[C@@H]1NC(=O)[C@@H]2CSSC[C@@H](C(N)=O)NC(=O)[C@@H](CCCCN)NC(=O)[C@H](Cc3ccc(O)cc3)NC(=O)[C@@H](CCCCN)NC(=O)[C@H](CSSC[C@H](NC(=O)CN)C(=O)N2)NC(=O)[C@@H](CCCCN)NC(=O)[C@H](CC(C)C)NC(=O)[C@@H](CCCCN)NC1=O` [Pep 1] (H-GCCL[dK]L[dK]C[dK]Y[dK]C-NH2; disulfide 2-8, 3-12), the “MIC, C. tropical” value in data set [1] is greater than 64 µM. Also, in data set [2], the “MIC, C. parapsilosis” value was greater than 64 µM. Also, the “MIC, B. subtilis” value in data set [3] was greater than 64 µM. Further, in data set [4], the “MIC, E. coli” value is greater than 64 µM.
On to `CC(C)C[C@@H]1NC(=O)[C@@H]2CSSC[C@@H](C(N)=O)NC(=O)[C@@H](CCCCN)NC(=O)[C@H](Cc3c[nH]c4ccccc34)NC(=O)[C@@H](CCCCN)NC(=O)[C@H](CSSC[C@H](NC(=O)[C@@H](N)CC(C)C)C(=O)N2)NC(=O)[C@@H](CCCCN)NC(=O)[C@H](CC(C)C)NC(=O)[C@@H](CCCCN)NC1=O` [Pep 2] (H-LCCL[dK]L[dK]C[dK]W[dK]C-NH2; disulfide 2-8, 3-12), for which the “MIC, C. tropical” value in data set [1] is greater than 64 µM. The “MIC, C. parapsilosis” value in data set [2] is greater than 64 µM. Besides, the “MIC, B. subtilis” value in [3] was greater than 64 µM. Moreover, the “MIC, E. coli” value in data set [4] is greater than 64 µM.
For the molecule `CC(C)C[C@@H]1NC(=O)[C@@H]2CSSC[C@@H](C(N)=O)NC(=O)[C@@H](CCCCN)NC(=O)[C@H](CC(C)C)NC(=O)[C@@H](CCCCN)NC(=O)[C@H](CSSC[C@H](NC(=O)[C@@H](N)CC(C)C)C(=O)N2)NC(=O)[C@@H](CCCCN)NC(=O)[C@H](CC(C)C)NC(=O)[C@@H](CCCCN)NC1=O` [Pep 3] (H-LCCL[dK]L[dK]C[dK]L[dK]C-NH2; disulfide 2-8, 3-12), the “MIC, C. tropical” value in [1] is greater than 64 µM. The “MIC, C. parapsilosis” value in [2] was greater than 64 µM. Also, in data set [3], the “MIC, B. subtilis” value is greater than 64 µM. For the same molecule, the “MIC, E. coli” value in [4] was greater than 64 µM.
Regarding `CC(C)C[C@@H]1NC(=O)[C@@H]2CSSC[C@@H](C(N)=O)NC(=O)[C@@H](CCCCN)NC(=O)[C@H](CC(C)C)NC(=O)[C@@H](CCCCN)NC(=O)[C@H](CSSC[C@H](NC(=O)[C@@H](N)CC(C)C)C(=O)N2)NC(=O)[C@H](C)NC(=O)[C@@H](CCCCN)NC(=O)[C@H](CC(C)C)NC(=O)[C@@H](CCCCN)NC1=O` [Pep 4] (H-LCCL[dK]L[dK]AC[dK]L[dK]C-NH2; disulfide 2-9, 3-13), the “MIC, C. tropical” value in [1] is greater than 64 µM. The “MIC, C. parapsilosis” value in data set [2] is greater than 64 µM. Besides, the “MIC, B. subtilis” value in data set [3] was greater than 64 µM. Also, in data set [4], the “MIC, E. coli” value is greater than 64 µM.
`CC(C)C[C@@H]1NC(=O)[C@@H]2CSSC[C@@H](C(N)=O)NC(=O)[C@@H](CCCCN)NC(=O)[C@H](CC(C)C)NC(=O)[C@@H](CCCCN)NC(=O)[C@H](CC(C)C)NC(=O)[C@@H](CCCCN)NC(=O)[C@H](CSSC[C@H](NC(=O)[C@@H](N)CC(C)C)C(=O)N2)NC(=O)[C@@H](CCCCN)NC1=O` [Pep 5] (H-LCCL[dK]C[dK]L[dK]L[dK]C-NH2; disulfide 2-6, 3-12): in [1], the “MIC, C. tropical” value is 64 µM (≈ 89 µg/mL). Besides, the “MIC, C. parapsilosis” value in data set [2] is 128 µM (≈ 178 µg/mL). Also, the “MIC, B. subtilis” value in data set [3] was found to be 128 µM (≈ 178 µg/mL). Besides, the “MIC, E. coli” value in data set [4] came out at 32 µM (≈ 44.5 µg/mL). The “Stability in SIF” value in the data set with trypsin is “remained almost entirely intact after 24 h”. Further, the “Hemolysis” value in data set [5] was “less than 5%”. Also, the amount remaining (usually the share of the starting amount still present when the sample was taken) at 4 h in the data set “in vitro” came to 20%.
With `CC(C)C[C@@H]1NC(=O)[C@@H](CCCCN)NC(=O)[C@@H]2CSSC[C@H](NC(=O)[C@H](CC(C)C)NC(=O)[C@@H](CCCCN)NC(=O)[C@@H](CCCCN)NC(=O)[C@@H](N)CC(C)C)C(=O)N[C@@H](CSSC[C@@H](C(N)=O)NC(=O)[C@@H](CCCCN)NC1=O)C(=O)N[C@H](CCCCN)C(=O)N2` [Pep 6] (H-L[dK][dK]LCC[dK]C[dK]L[dK]C-NH2; disulfide 5-8, 6-12), the “Effect on growth of Candida tropicalis (growth curve)” value in the data set on Candida tropicalis [6] is on record as “inhibitory effects”. In the data set with Candida tropicalis [7], the “Bactericidal effect on Candida tropicalis” value is on record as “significant bactericidal effect”, the “Fungal counts after 60 min” value is reported as 1 × 10^3 cfu/mL and the “Reduction of fungal counts” value was “over 1000 fold”. Also, the “MIC, C. tropical” value in [1] was 8 µM (≈ 11.2 µg/mL). Besides, in data set [2], the “MIC, C. parapsilosis” value came out at 32 µM (≈ 45 µg/mL). In addition, the “MIC, B. subtilis” value in [3] was determined as 64 µM (≈ 90 µg/mL). Moreover, the “MIC, E. coli” value in data set [4] worked out at 128 µM (≈ 180 µg/mL). Besides, the “Stability in SIF” value in the data set with trypsin was “remained almost entirely intact after 24 h”. The “Hemolysis” value in [5] is “less than 5%”. Besides, the “Toxicity on human hepatocyte THLE-3” value in data set [8] was “little or no toxicity”. Moreover, the Body weight change entry with C57BL/6 mice (in vivo) is “no significant changes”. This molecule also registered a fraction remaining at 4 h in “in vitro” of 20%.
On to `CC(C)C[C@@H]1NC(=O)[C@H](CCCCN)NC(=O)[C@H](CC(C)C)NC(=O)[C@H](CCCCN)NC(=O)[C@@H]2CSSC[C@H](NC(=O)[C@@H](N)CC(C)C)C(=O)N[C@@H](CSSC[C@@H](C(N)=O)NC(=O)[C@H](CCCCN)NC1=O)C(=O)N[C@@H](CC(C)C)C(=O)N[C@@H](CCCCN)C(=O)N2` [Pep 7] (H-LCCLKCKLKLKC-NH2; disulfide 2-6, 3-12), for which the “MIC, C. tropical” value in [1] was determined as 64 µM (≈ 89 µg/mL). In addition, the “MIC, C. parapsilosis” value in [2] came out at 64 µM (≈ 89 µg/mL). The “MIC, B. subtilis” value in [3] amounted to 64 µM (≈ 89 µg/mL). Besides, in data set [4], the “MIC, E. coli” value is greater than 128 µM. Besides, the “Stability in SIF” value in the data set on trypsin was “nearly fully degraded within one hour”.
Consider `CC(C)C[C@@H]1NC(=O)[C@@H]2CSSC[C@@H](C(N)=O)NC(=O)[C@@H](CCCNC(=N)N)NC(=O)[C@H](CC(C)C)NC(=O)[C@@H](CCCCN)NC(=O)[C@H](CC(C)C)NC(=O)[C@@H](CCCNC(=N)N)NC(=O)[C@H](CSSC[C@H](NC(=O)[C@@H](N)CC(C)C)C(=O)N2)NC(=O)[C@@H](CCCNC(=N)N)NC1=O` [Pep 8] (H-LCCL[dR]C[dR]L[dK]L[dR]C-NH2; disulfide 2-6, 3-12), for which, in the data set with Candida tropicalis [6], the “Effect on growth of Candida tropicalis (growth curve)” value is given as “inhibitory effects”. For the same molecule, the “Effect on growth of Bacillus subtilis (growth curve)” value in the data set on Bacillus subtilis is given as “inhibitory effects”. In the data set on Candida tropicalis [7], the “Bactericidal effect on Candida tropicalis” value was “significant bactericidal effect”, the “Fungal counts after 60 min” value is given as 1 × 10^3 cfu/mL and the “Reduction of fungal counts” value was “over 1000 fold”. Further, the “MIC, C. tropical” value in [1] was 8 µM (≈ 11.8 µg/mL). In [2], the “MIC, C. parapsilosis” value was determined as 8 µM (≈ 11.8 µg/mL). Besides, the “MIC, B. subtilis” value in data set [3] was 16 µM (≈ 23.6 µg/mL). For the same molecule, the “MIC, E. coli” value in data set [4] was found to be 128 µM (≈ 189 µg/mL). The “Stability in SIF” value in the data set on trypsin is recorded as “remained almost entirely intact after 24 h”. Further, the “Hemolysis” value in data set [5] was “less than 5%”. For the same molecule, in data set [8], the “Cytotoxicity on human hepatocyte THLE-3” value is listed as “remarkable cytotoxicity”. Moreover, in the data set with C57BL/6 mice, the “In vivo safety in mice” value was “favorable safety”. Besides, in the data set “in vitro”, the amount remaining at 4 h was 20%.
On to `CC(C)C[C@@H]1NC(=O)[C@H](CCCCN)NC(=O)[C@@H]2CSSC[C@H](NC(=O)[C@H](CC(C)C)NC(=O)[C@H](CCCCN)NC(=O)[C@H](CCCCN)NC(=O)[C@@H](N)CC(C)C)C(=O)N[C@@H](CSSC[C@@H](C(N)=O)NC(=O)[C@H](CCCCN)NC1=O)C(=O)N[C@@H](CCCCN)C(=O)N2` [Pep 9] (H-LKKLCCKCKLKC-NH2; disulfide 5-8, 6-12), for which the “Effect on growth of Candida tropicalis (growth curve)” value in the data set on Candida tropicalis [6] is given as “inhibitory effects”. Further, in the data set on Candida tropicalis [7], the “Fungal counts after 60 min” value is 1 × 10^3 cfu/mL and the “Reduction of fungal counts” value is reported as “over 1000 fold”. Besides, the “MIC, C. tropical” value in [1] is 16 µM (≈ 22.5 µg/mL). Moreover, the “MIC, C. parapsilosis” value in data set [2] was 16 µM (≈ 22.5 µg/mL). The “MIC, B. subtilis” value in data set [3] came to 128 µM (≈ 180 µg/mL). Besides, the “MIC, E. coli” value in data set [4] was greater than 128 µM. In the data set on trypsin, the “Stability in SIF” value is reported as “nearly fully degraded within one hour”. In addition, the “Toxicity on human hepatocyte THLE-3” value in data set [8] was “little or no toxicity”.
